Assay [1] deals with thymocytes. In words: Proliferative response (3H-thymidine) of thymocytes in vitro after in vivo treatment, hydrocortisone induced thymic involution in aged mice. How it is done:
(§1) The model of hydrocortisone induced thymic involution in aged mice was used unless otherwise indicated (Hadden et al., 1992b).
(§2) Female BALB/c (Life Science, St. Petersburg, Fla.) aged retired breeder mice (8-9 months) whose thymuses had begun to involute were employed in in vivo tests. Mice were weight matched and randomly pooled in groups of five. Animals were fed standard laboratory diets with drinking water ad lib. All mice, with exception of a control group, were treated intraperitoneally (i.p.) with hydrocortisone (5 mg/mouse in 0.1 ml 0.9% sodium chloride) for two consecutive days to induce a chemical thymectomy and reduction of spleen weight.
(§3) Each treatment group had five (5) animals and each experiment was repeated 2-5 times. Treatment was initiated intraperitoneally (i.p.), on Day 3 and continued once per day for a total of five (5) days. Treatment groups were injected with one of the following in vivo treatments as indicated in the text:
(§4) On day 8, the mice were weighed, sacrificed by cervical dislocation, and their spleens and thymuses removed and weighed. The organs were minced, the residual erythrocytes were lysed using ammonium chloride (Mishell and Shiigi, "Selected Methods in Cellular Immunology", 1981), and the cells counted.
(§5) The proliferative response of the cells to various substances was then determined. A sample of cells was prepared for cell culture at 37° C., 5% CO2 in RPMI 1640 medium with 5% fetal bovine serum, penicillin (100 U/ml), streptomycin (100 μg/ml) and 2-mercaptoethanol (2×10^-5 M). The cells were plated in 0.2 ml microwell plates in quadruplicate at a concentration of 1.5×10^6 /ml and incubated for 72 hours with one of the following as indicated in the text:
(§6) To measure DNA synthesis, the culture was terminated with an 18 hours pulse of tritiated thymidine (^3 H-Thymidine; NEN, Boston, Mass.; specific activity 6.7 Ci/mM), harvested with a multiple automatic sample harvester and processed for liquid scintillation counting. The results were expressed as arithmetic mean of cpm from four samples. In order to simplify the representation of data obtained with different animals, the results were pooled and calculated together and in some cases expressed as a ratio to control±SEM.
(§7) In a series of experiments, mice with involuted thymuses were treated in vivo with NCM, Thymosin α1, Thymosin fraction V, combinations of these factors, and saline or media controls. The spleens and thymuses were removed, the cells were tested for cell proliferation responses to stimulation in vitro with the interleukins (IL1, IL2, NCM) or with mitogens (PHA; ConA).

In assay [2] the test system is splenocytes. The assay can be described thus: Proliferative response (3H-thymidine) of splenocytes in vitro after in vivo treatment, hydrocortisone induced thymic involution in aged mice. As to the method:
as §1, §2, §3, §4, §5, §6, §7

Assay [3] in a line: Spleen weight in hydrocortisone-treated aged mice. Format: in vivo. The conditions noted are these: NCM 50 U of IL-2 per mouse/day; Thymosin α1 5 or 20 microgram/mouse/day (pooled); i.p. 5 days, day 8. As to the method: as §2, §3, §4
(§8) Animals, hydrocortisone treatment, and experimental injections were as described in the general methods. The NCM was injected at 50 U of IL-2 per mouse/day. The Thymosin α1 (T alpha-1 or Tα1) was injected at 5 or 20 microgram/mouse/day.

Assay [4] is described as follows: Thymus weight in hydrocortisone-treated aged mice. Format: in vivo. Conditions: NCM 50 U of IL-2 per mouse/day; Thymosin α1 5 or 20 microgram/mouse/day (pooled); i.p. 5 days, day 8. As to the method:
as §2, §3, §4, §8

No end group written: not given here.

The values below come from patent US5632983A, “Method for treating secondary immunodeficiency” (University of South Florida, priority 1994, dated 1997).

With “Thymosin α1 (SDAAVDTSSEITTKDLKEKKEVVEEAEN; not fully specified; ends and bridges not checked; UniProt P01252 2-29, looked up) [28 amino acid peptide initially extracted from bovine thymus and later synthesized]”, the “dose of optimal effects on thymocyte responses to interleukins and mitogen” value in assay [1] (FIG. 1, dose response 0.2 to 20 μg/animal/day in vivo) turned out to be 5 μg/mouse. The “thymocyte responses in vitro to media, rIL-1, rIL-2 and NCM” value in assay [1] (FIG. 3, in vivo i.p. once per day for 5 days, Thymosin α1 5 μg/mouse, NCM 50 units IL-2 equivalence) is recorded as “increased many of the responses”. For the same substance, in assay [1] (FIG. 5, in vivo treatments as in FIG. 3), the “thymocyte responses to mitogens PHA and ConA” value is reported as “significantly augmented both responses”. Besides, the “thymocyte responses to rIL-1, IL-2, NCM or ConA” value in assay [1] (FIGS. 7 and 9, ratio to saline treated control, Thymosin α1 5 μg/mouse/day, TF5 100 μg/mouse/day, NCM 50 units) was “augmented all of the responses”. Moreover, the “dose of optimal effects on splenocyte responses to interleukins and mitogen” value in assay [2] (FIG. 2, dose response 0.2 to 20 μg/animal/day in vivo) turned out to be 5 μg/mouse. In assay [2] (FIG. 4, in vivo i.p. once per day for 5 days, Thymosin α1 5 μg/mouse, NCM 50 units IL-2 equivalence), the “splenocyte responses in vitro to media, rIL-1, rIL-2 and NCM” value is recorded as “increased many of the responses”. Besides, the “splenocyte responses to mitogens PHA and ConA” value in assay [2] (FIG. 6, in vivo treatments as in FIG. 3) is on record as “significantly augmented both responses”. In addition, the “splenocyte responses to rIL-1, IL-2, NCM or ConA” value in assay [2] (FIGS. 8 and 10, ratio to saline treated control, Thymosin α1 5 μg/mouse, TF5 100 μg/mouse, NCM 50 units) is “augmented all of the responses”. The “SPLEEN WEIGHT (mg) Mean ± S.E.M.” value in assay [3] was found to be 127.66 ± 5.78 mg. The “THYMUS WEIGHT (mg) Mean ± S.E.M.” value in assay [4] is on record as 25.75 ± 4.45 mg.
